Results reported in PubChem BioAssay AID1918996 (Molecular Pharmacology Branch, DTP, NCI, 2023).
pIC50: −log10 of the molar value.

System: 349418-098-R-PDC complex spheroid growth
Assay: Anticancer human tumor 349418-098-R-PDC patient-derived lung adenocarcinoma cell line growth inhibition [AhR]
Conditions: for pIC50: curve of first compound; for viability, T/C: stronger effect = lower value
Outline: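 Spheroids combined tumor cells with HUVEC endothelial cells and human MSCs as stroma. AhR antagonists were paired with standard or investigational drugs, each dosed in half-log steps down from near clinical Cmax, or from 10 microM where Cmax was unknown.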

[1] = second compound 0.1 µM, first compound 0.0316 µM
[2] = second compound 0.1 µM, first compound 0.1 µM
[3] = second compound 0.1 µM, first compound 0.316 µM
[4] = second compound 0.1 µM, first compound 1 µM
[5] = second compound 0.1 µM, first compound 3.16 µM
[6] = second compound 0.1 µM, first compound 10 µM
[7] = second compound 0.316 µM, first compound 0.0316 µM
[8] = second compound 0.316 µM, first compound 0.1 µM
[9] = second compound 0.316 µM, first compound 0.316 µM
[10] = second compound 0.316 µM, first compound 1 µM
[11] = second compound 0.316 µM, first compound 3.16 µM
[12] = second compound 0.316 µM, first compound 10 µM
[13] = second compound 1 µM, first compound 0.0316 µM
[14] = second compound 1 µM, first compound 0.1 µM
[15] = second compound 1 µM, first compound 0.316 µM
[16] = second compound 1 µM, first compound 1 µM
[17] = second compound 1 µM, first compound 3.16 µM
[18] = second compound 1 µM, first compound 10 µM
[19] = second compound 3.16 µM, first compound 0.0316 µM
[20] = second compound 3.16 µM, first compound 0.1 µM
[21] = second compound 3.16 µM, first compound 0.316 µM
[22] = second compound 3.16 µM, first compound 1 µM
[23] = second compound 3.16 µM, first compound 3.16 µM
[24] = second compound 3.16 µM, first compound 10 µM
[25] = second compound 10 µM, first compound 0.0316 µM
[26] = second compound 10 µM, first compound 0.1 µM
[27] = second compound 10 µM, first compound 0.316 µM
[28] = second compound 10 µM, first compound 1 µM
[29] = second compound 10 µM, first compound 3.16 µM
[30] = second compound 10 µM, first compound 10 µM
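Further: spheroids exposed to agents for seven days before luminescence viability read.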

Molecule `CCc1c2c(nc3ccc(O)cc13)-c1cc3c(c(=O)n1C2)COC(=O)[C@]3(O)CC` + Cc1cncc(-c2nc(NCCc3c[nH]c4ccccc34)c3ncn(C(C)C)c3n2)c1 has a pIC50 (second compound 0.1 µM) greater than 9.02, a pIC50 (second compound 0.316 µM) greater than 9.02 and a pIC50 (second compound 1 µM) greater than 9.02. It also gave a pIC50 (second compound 3.16 µM) greater than 9.02, a pIC50 (second compound 10 µM) greater than 9.02 and a viability, T/C (second compound 0.1 µM, first compound 0.000949 µM) of 49.5%. For the same molecule, the viability, T/C (second compound 0.1 µM, first compound 0.003 µM) was 24.2%, the viability, T/C (second compound 0.1 µM, first compound 0.00949 µM) was 6.34% and the viability, T/C (second compound 0.1 µM, first compound 0.03 µM) was 3.54%. The viability, T/C (second compound 0.1 µM, first compound 0.0949 µM) was 2.3%, the viability, T/C (second compound 0.1 µM, first compound 0.3 µM) was 1.59% and the viability, T/C (second compound 0.316 µM, first compound 0.000949 µM) was 47.7%. The viability, T/C (second compound 0.316 µM, first compound 0.003 µM) was 16.8%, the viability, T/C (second compound 0.316 µM, first compound 0.00949 µM) was 5.66% and the viability, T/C (second compound 0.316 µM, first compound 0.03 µM) was 3.5%. It also gave a viability, T/C (second compound 0.316 µM, first compound 0.0949 µM) of 2.11%, a viability, T/C (second compound 0.316 µM, first compound 0.3 µM) of 1.51% and a viability, T/C (second compound 1 µM, first compound 0.000949 µM) of 41.9%. It also gave a viability, T/C (second compound 1 µM, first compound 0.003 µM) of 14.4%, a viability, T/C (second compound 1 µM, first compound 0.00949 µM) of 5.54% and a viability, T/C (second compound 1 µM, first compound 0.03 µM) of 3.53%. For the same molecule, the viability, T/C (second compound 1 µM, first compound 0.0949 µM) was 2.48%, the viability, T/C (second compound 1 µM, first compound 0.3 µM) was 1.41% and the viability, T/C (second compound 3.16 µM, first compound 0.000949 µM) was 12.8%. For the same molecule, the viability, T/C (second compound 3.16 µM, first compound 0.003 µM) was 6.98%, the viability, T/C (second compound 3.16 µM, first compound 0.00949 µM) was 3.19% and the viability, T/C (second compound 3.16 µM, first compound 0.03 µM) was 2.37%. It also gave a viability, T/C (second compound 3.16 µM, first compound 0.0949 µM) of 1.61%, a viability, T/C (second compound 3.16 µM, first compound 0.3 µM) of 1.27% and a viability, T/C (second compound 10 µM, first compound 0.000949 µM) of 1.19%. It also gave a viability, T/C (second compound 10 µM, first compound 0.003 µM) of 1.44%, a viability, T/C (second compound 10 µM, first compound 0.00949 µM) of 0.76% and a viability, T/C (second compound 10 µM, first compound 0.03 µM) of 0.65%. For the same molecule, the viability, T/C (second compound 10 µM, first compound 0.0949 µM) was 0.41% and the viability, T/C (second compound 10 µM, first compound 0.3 µM) was 0.29%.

Work on `Nc1ccccc1NC(=O)c1ccc(CNC(=O)OCc2cccnc2)cc1` + Cc1cncc(-c2nc(NCCc3c[nH]c4ccccc34)c3ncn(C(C)C)c3n2)c1 yielded a pIC50 (second compound 0.1 µM) of 6.21, a pIC50 (second compound 0.316 µM) of 6.12 and a pIC50 (second compound 1 µM) of 6.29. It also gave a pIC50 (second compound 3.16 µM) greater than 7.50, a pIC50 (second compound 10 µM) greater than 7.50 and a viability, T/C [1] of 79.9%. The viability, T/C [2] was 69.6%, the viability, T/C [3] was 58.4% and the viability, T/C [4] was 46.7%. For the same molecule, the viability, T/C [5] was 19.9%, the viability, T/C [6] was 4.89% and the viability, T/C [7] was 69.7%. It also gave a viability, T/C [8] of 73.5%, a viability, T/C [9] of 57.3% and a viability, T/C [10] of 47.7%. For the same molecule, the viability, T/C [11] was 25.6%, the viability, T/C [12] was 4.93% and the viability, T/C [13] was 72.6%. It also gave a viability, T/C [14] of 67.5%, a viability, T/C [15] of 54.9% and a viability, T/C [16] of 43.2%. It also gave a viability, T/C [17] of 20.1%, a viability, T/C [18] of 4.95% and a viability, T/C [19] of 12.8%. The viability, T/C [20] was 15.7%, the viability, T/C [21] was 9.2% and the viability, T/C [22] was 12.1%. The viability, T/C [23] was 7.68%, the viability, T/C [24] was 2.59% and the viability, T/C [25] was 1%. The viability, T/C [26] was 1.06%, the viability, T/C [27] was 0.67% and the viability, T/C [28] was 0.76%. The viability, T/C [29] was 0.51% and the viability, T/C [30] was 0.34%.

For `Nc1ccn(C2OC(CO)C(O)C2(F)F)c(=O)n1` (stereo not given) + Cc1cncc(-c2nc(NCCc3c[nH]c4ccccc34)c3ncn(C(C)C)c3n2)c1, the pIC50 (second compound 0.1 µM) was greater than 7.50, the pIC50 (second compound 0.316 µM) was greater than 7.50 and the pIC50 (second compound 1 µM) was greater than 7.50. The pIC50 (second compound 3.16 µM) was greater than 7.50, the pIC50 (second compound 10 µM) was greater than 7.50 and the viability, T/C [1] was 5.21%. The viability, T/C [2] was 5.33%, the viability, T/C [3] was 4.29% and the viability, T/C [4] was 4.06%. For the same molecule, the viability, T/C [5] was 3.79%, the viability, T/C [6] was 3.29% and the viability, T/C [7] was 5.26%. For the same molecule, the viability, T/C [8] was 5.35%, the viability, T/C [9] was 4.46% and the viability, T/C [10] was 4.46%. It also gave a viability, T/C [11] of 3.84%, a viability, T/C [12] of 3.1% and a viability, T/C [13] of 5.67%. The viability, T/C [14] was 5.73%, the viability, T/C [15] was 5.73% and the viability, T/C [16] was 4.6%. It also gave a viability, T/C [17] of 6.45%, a viability, T/C [18] of 3.8% and a viability, T/C [19] of 8.15%. The viability, T/C [20] was 6.5%, the viability, T/C [21] was 5.64% and the viability, T/C [22] was 4.25%. It also gave a viability, T/C [23] of 4.89%, a viability, T/C [24] of 3.39% and a viability, T/C [25] of 4.66%. It also gave a viability, T/C [26] of 3.51%, a viability, T/C [27] of 3.29% and a viability, T/C [28] of 4.08%. The viability, T/C [29] was 2.99% and the viability, T/C [30] was 2.51%.

Molecule `O=C(c1cc(Cc2n[nH]c(=O)c3ccccc23)ccc1F)N1CCN(C(=O)C2CC2)CC1` + Cc1cncc(-c2nc(NCCc3c[nH]c4ccccc34)c3ncn(C(C)C)c3n2)c1 has a pIC50 (second compound 0.1 µM) of less than 5.00, a pIC50 (second compound 0.316 µM) of less than 5.00 and a pIC50 (second compound 1 µM) of less than 5.00. The pIC50 (second compound 3.16 µM) was greater than 7.50, the pIC50 (second compound 10 µM) was greater than 7.50 and the viability, T/C [1] was 75.7%. The viability, T/C [2] was 91.6%, the viability, T/C [3] was 98.3% and the viability, T/C [4] was 89.9%. For the same molecule, the viability, T/C [5] was 75.2%, the viability, T/C [6] was 58.8% and the viability, T/C [7] was 94.8%. The viability, T/C [8] was 102%, the viability, T/C [9] was 99.4% and the viability, T/C [10] was 82.3%. The viability, T/C [11] was 74.7%, the viability, T/C [12] was 64.4% and the viability, T/C [13] was 81.7%. It also gave a viability, T/C [14] of 86.7%, a viability, T/C [15] of 84.1% and a viability, T/C [16] of 67.2%. For the same molecule, the viability, T/C [17] was 75.5%, the viability, T/C [18] was 65.1% and the viability, T/C [19] was 17.7%. The viability, T/C [20] was 19%, the viability, T/C [21] was 14.9% and the viability, T/C [22] was 12.7%. For the same molecule, the viability, T/C [23] was 15%, the viability, T/C [24] was 13.9% and the viability, T/C [25] was 1.12%. For the same molecule, the viability, T/C [26] was 1.3%, the viability, T/C [27] was 0.99% and the viability, T/C [28] was 1.23%. The viability, T/C [29] was 1.33% and the viability, T/C [30] was 1.37%.
